# Tests used:
# Experiment in all cases: KiNativ kinome profiling in PANC-1 lysate
# Type in all cases: binding
# ARAF = target: T1, ARAF (Homo sapiens, UniProt P10398); details: Lys2
# T1 construct: endogenous in cells; host or cells: PANC-1 cell lysate
# Method in brief: (§1)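 PANC-1 lysates were incubated with 5 μM inhibitor or DMSO, then labeled with a desthiobiotin-ATP acyl-phosphate probe that biotinylates conserved kinase lysines. Tryptic peptides were streptavidin-enriched and quantified by LC-MS/MS, reported as % change in MS signal from duplicate treated and duplicate control samples.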
# CDK5 = target: T2, CDK5 (Homo sapiens, UniProt Q00535)
# T2 construct: endogenous in cells; host or cells: PANC-1 cell lysate
# Method in brief: as §1
# CLK2 = target: T3, CLK2 (Homo sapiens, UniProt P49760); details: Lys2
# T3 construct: endogenous in cells; host or cells: PANC-1 cell lysate
# Method in brief: as §1
# FAK = target: T4, FAK (Homo sapiens, UniProt Q05397)
# T4 construct: endogenous in cells; host or cells: PANC-1 lysate
# Method in brief: as §1
# IRAK4 = target: T5, IRAK4 (Homo sapiens, UniProt Q9NWZ3)
# T5 construct: we opted to conduct a kinome screen (KiNativ) in PANC-1 cell lysates; endogenous in cells; host or cells: PANC-1 cell lysate
# Method in brief: as §1
# LYN = target: T6, LYN (Homo sapiens, UniProt P07948)
# T6 construct: endogenous in cells; host or cells: PANC-1 cell lysate
# Method in brief: as §1
# MAP2K4 = target: T7, MAP2K4 (Homo sapiens, UniProt P45985)
# T7 construct: endogenous in cells; host or cells: PANC-1 cell lysate
# Method in brief: as §1
# MAP2K5 = target: T8, MAP2K5 (Homo sapiens, UniProt Q13163); details: Lys2
# T8 construct: endogenous in cells; host or cells: PANC-1 cell lysate
# Method in brief: as §1
# MAST3 = target: T9, MAST3 (Homo sapiens, UniProt O60307); details: Lys2
# T9 construct: endogenous in cells; host or cells: PANC-1
# Method in brief: as §1
# NuaK2 = target: T10, NuaK2 (Homo sapiens, UniProt Q9H093); details: Lys1
# T10 construct: endogenous in cells; host or cells: PANC-1 cell lysate
# Method in brief: as §1
# PAK2 = target: T11, PAK2 (Homo sapiens, UniProt Q13177)
# T11 construct: endogenous in cells; host or cells: PANC-1 cell lysate
# Method in brief: as §1
# PCTAIRE1 = target: T12, PCTAIRE1 (Homo sapiens, UniProt Q00536); details: Lys1
# T12 construct: endogenous in cells; host or cells: PANC-1 cell lysate
# Method in brief: as §1
# PCTAIRE2, PCTAIRE3 = details: 5 µM; Lys1; SKLTENLVALKEIR
# Method in brief: as §1
# PIK3C3 = target: T13, PIK3C3 (Homo sapiens, UniProt Q8NEB9); details: ATP
# T13 construct: endogenous in cells; host or cells: PANC-1 cell lysate
# Method in brief: as §1
# PKN1 = target: T14, PKN1 (Homo sapiens, UniProt Q16512)
# T14 construct: endogenous in cells; host or cells: PANC-1 cell lysate
# Method in brief: as §1
# RAF1 = target: T15, RAF1 (Homo sapiens, UniProt P04049); details: Lys2
# T15 construct: endogenous in cells; host or cells: PANC-1 cell lysate
# Method in brief: as §1
# RIPK2 = target: T16, RIPK2 (Homo sapiens, UniProt O43353); details: Lys2
# T16 construct: endogenous in cells; host or cells: PANC-1 cell lysate
# Method in brief: as §1
# SBK = target: T17, SBK (Homo sapiens, UniProt Q52WX2); details: Lys2
# T17 construct: endogenous in cells; host or cells: PANC-1 cell lysate
# Method in brief: as §1
# SNRK = target: T18, SNRK (Homo sapiens, UniProt Q9NRH2)
# T18 construct: endogenous in cells; host or cells: PANC-1 cell lysate
# Method in brief: as §1
# TLK1 = target: T19, TLK1 (Homo sapiens, UniProt Q9UKI8); details: Lys2
# T19 construct: endogenous in cells; host or cells: PANC-1 cell lysate
# Method in brief: as §1
# TYK2 domain2 = target: T20, TYK2 domain2 (Homo sapiens, UniProt P29597); details: ATP Loop
# T20 construct: endogenous in cells; host or cells: PANC-1 cell lysate
# Method in brief: as §1
# Wee1 = target: T21, Wee1 (Homo sapiens, UniProt P30291); details: Lys2
# T21 construct: endogenous in cells; host or cells: PANC-1 cell lysate
# Method in brief: as §1
# ZAK = target: T22, ZAK (Homo sapiens, UniProt Q9NYL2); details: Lys1
# T22 construct: endogenous in cells; host or cells: PANC-1 cell lysate
# Method in brief: as §1
# ZC2/TNIK = target: T23, ZC2/TNIK (Homo sapiens, UniProt Q9UKE5); details: Lys1
# T23 construct: endogenous in cells; host or cells: PANC-1 cell lysate
# Method in brief: as §1
# p38d, p38g = details: 5 µM; Lys2; DLKPGNLAVNEDCELK
# Method in brief: as §1
# T2 sequence (Q00535 whole entry): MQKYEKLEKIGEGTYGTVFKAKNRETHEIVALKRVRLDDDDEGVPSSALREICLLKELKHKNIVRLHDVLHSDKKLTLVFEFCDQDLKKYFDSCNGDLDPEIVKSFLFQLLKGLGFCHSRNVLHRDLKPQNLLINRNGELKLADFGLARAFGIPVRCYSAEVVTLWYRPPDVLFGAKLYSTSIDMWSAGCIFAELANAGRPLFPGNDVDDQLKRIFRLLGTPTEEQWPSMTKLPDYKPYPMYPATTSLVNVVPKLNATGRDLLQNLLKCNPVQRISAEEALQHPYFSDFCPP
# T7 sequence (P45985 whole entry): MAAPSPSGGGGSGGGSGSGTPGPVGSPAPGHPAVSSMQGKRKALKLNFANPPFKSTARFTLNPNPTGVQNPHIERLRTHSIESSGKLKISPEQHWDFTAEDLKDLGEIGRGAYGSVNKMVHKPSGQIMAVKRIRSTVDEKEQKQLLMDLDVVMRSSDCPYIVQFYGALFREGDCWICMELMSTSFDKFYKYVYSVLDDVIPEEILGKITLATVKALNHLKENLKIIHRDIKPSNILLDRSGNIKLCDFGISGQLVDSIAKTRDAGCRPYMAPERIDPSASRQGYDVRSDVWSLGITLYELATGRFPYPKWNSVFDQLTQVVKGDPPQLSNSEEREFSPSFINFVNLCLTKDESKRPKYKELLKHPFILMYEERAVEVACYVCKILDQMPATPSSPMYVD
# T14 sequence (Q16512 whole entry): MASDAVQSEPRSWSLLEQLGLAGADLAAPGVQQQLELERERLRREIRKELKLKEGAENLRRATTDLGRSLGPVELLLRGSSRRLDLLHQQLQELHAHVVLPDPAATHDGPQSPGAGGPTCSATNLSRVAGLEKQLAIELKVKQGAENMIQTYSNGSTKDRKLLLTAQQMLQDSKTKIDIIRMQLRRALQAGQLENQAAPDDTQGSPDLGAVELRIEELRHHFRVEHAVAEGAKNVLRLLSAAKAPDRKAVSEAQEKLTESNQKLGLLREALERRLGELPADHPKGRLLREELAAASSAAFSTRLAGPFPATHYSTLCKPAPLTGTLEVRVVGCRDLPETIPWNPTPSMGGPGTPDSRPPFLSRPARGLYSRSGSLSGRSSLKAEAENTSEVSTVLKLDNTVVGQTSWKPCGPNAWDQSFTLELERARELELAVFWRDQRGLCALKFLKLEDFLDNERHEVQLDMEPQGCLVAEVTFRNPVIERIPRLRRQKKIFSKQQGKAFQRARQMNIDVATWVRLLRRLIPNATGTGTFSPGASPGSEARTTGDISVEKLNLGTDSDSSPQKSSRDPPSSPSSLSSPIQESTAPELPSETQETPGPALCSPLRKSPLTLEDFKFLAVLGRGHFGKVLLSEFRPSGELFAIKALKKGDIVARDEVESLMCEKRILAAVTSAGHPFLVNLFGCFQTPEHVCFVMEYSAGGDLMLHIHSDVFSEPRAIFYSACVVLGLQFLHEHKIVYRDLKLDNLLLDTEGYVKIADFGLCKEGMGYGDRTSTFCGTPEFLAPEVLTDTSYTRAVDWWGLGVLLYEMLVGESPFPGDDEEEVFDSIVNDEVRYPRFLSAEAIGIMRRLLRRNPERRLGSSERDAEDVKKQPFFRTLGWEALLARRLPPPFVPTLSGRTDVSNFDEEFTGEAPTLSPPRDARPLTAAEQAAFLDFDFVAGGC
# T4 sequence (Q05397 whole entry): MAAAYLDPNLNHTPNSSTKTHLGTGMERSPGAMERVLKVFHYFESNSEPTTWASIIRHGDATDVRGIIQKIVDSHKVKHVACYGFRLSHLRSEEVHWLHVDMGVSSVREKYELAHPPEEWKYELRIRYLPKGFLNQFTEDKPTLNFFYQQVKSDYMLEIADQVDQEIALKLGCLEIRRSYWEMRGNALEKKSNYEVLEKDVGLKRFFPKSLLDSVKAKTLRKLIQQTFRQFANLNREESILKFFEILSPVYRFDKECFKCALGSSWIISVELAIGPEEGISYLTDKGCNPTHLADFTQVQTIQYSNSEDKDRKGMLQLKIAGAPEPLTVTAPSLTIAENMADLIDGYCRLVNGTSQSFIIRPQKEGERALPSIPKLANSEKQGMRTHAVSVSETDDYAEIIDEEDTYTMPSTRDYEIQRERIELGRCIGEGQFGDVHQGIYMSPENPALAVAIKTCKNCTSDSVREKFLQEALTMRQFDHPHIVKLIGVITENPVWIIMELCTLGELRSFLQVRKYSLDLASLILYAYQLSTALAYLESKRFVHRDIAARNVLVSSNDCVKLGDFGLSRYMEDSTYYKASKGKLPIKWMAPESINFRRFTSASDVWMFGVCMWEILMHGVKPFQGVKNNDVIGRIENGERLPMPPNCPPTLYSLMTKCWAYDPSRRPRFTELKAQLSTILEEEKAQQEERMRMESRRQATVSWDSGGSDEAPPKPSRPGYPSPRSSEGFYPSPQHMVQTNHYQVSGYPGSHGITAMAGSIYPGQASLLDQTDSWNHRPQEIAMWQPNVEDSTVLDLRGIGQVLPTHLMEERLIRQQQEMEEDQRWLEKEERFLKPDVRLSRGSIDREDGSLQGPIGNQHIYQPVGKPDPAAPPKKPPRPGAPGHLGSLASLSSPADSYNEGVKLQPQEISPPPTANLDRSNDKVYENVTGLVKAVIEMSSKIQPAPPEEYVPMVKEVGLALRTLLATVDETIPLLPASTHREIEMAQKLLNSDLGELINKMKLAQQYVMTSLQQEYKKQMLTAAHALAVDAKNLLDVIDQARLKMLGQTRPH
# T13 sequence (Q8NEB9 whole entry): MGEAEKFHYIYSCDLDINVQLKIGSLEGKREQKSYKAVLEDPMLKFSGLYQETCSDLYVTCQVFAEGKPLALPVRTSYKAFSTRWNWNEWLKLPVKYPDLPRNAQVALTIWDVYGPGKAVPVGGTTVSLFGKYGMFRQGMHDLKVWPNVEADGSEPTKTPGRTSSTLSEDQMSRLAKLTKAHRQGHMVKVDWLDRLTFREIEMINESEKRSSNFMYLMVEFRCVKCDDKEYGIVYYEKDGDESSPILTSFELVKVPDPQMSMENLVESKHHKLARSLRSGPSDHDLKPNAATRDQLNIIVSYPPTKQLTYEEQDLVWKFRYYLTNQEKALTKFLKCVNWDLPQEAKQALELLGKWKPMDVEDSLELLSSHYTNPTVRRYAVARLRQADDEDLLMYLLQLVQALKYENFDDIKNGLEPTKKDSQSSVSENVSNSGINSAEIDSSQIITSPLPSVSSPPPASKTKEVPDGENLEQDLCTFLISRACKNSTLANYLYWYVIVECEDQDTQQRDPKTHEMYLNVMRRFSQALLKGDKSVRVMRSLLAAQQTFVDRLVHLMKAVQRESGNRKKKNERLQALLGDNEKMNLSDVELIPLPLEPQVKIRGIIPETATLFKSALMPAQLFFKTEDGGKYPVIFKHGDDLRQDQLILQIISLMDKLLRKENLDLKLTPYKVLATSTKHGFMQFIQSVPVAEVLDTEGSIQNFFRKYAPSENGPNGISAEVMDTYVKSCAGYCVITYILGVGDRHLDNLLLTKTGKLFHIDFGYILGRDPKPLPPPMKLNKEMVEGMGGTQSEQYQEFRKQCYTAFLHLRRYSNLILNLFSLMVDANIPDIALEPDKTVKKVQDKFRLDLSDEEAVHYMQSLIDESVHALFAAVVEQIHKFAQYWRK
# T18 sequence (Q9NRH2 whole entry): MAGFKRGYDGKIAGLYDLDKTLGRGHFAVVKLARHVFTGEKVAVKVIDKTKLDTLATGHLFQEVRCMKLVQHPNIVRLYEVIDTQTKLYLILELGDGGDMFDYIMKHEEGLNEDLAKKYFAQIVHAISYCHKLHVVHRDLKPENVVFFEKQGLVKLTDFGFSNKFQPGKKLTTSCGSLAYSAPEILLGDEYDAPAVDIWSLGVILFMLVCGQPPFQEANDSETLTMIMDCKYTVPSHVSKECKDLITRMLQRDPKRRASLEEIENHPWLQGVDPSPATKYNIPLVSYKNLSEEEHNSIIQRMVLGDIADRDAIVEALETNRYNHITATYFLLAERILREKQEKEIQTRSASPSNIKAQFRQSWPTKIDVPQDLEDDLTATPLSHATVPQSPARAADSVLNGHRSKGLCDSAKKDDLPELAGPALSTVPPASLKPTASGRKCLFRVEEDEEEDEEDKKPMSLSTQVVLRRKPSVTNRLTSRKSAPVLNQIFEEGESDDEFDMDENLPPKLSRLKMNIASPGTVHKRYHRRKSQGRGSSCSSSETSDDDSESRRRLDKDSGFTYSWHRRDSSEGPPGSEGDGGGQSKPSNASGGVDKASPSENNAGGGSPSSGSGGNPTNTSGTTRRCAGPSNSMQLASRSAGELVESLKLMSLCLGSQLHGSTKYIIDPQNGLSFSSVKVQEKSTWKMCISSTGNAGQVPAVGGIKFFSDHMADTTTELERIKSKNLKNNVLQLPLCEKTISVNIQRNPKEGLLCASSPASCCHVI
# T6 sequence (P07948 whole entry): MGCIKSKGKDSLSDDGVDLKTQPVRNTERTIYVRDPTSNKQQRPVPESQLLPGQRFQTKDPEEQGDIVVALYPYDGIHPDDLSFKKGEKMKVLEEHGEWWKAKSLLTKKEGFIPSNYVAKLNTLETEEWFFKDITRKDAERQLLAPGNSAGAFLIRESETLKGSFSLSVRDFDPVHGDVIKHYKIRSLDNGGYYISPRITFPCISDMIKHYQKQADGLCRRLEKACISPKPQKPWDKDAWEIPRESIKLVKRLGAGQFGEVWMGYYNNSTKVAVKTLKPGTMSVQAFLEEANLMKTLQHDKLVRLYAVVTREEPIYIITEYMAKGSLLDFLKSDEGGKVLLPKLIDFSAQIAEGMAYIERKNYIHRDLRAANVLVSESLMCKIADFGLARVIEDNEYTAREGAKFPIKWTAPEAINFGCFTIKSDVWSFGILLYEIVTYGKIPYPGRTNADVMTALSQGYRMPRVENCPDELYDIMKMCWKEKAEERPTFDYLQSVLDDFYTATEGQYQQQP
smiles,measurement,setting,value
"Cn1cc(-c2cnc3ccc(NC(=O)Nc4ccc(F)c(C(F)(F)F)c4)cc3n2)cn1 [51-106, 1-(4-Fluoro-3-(trifluoromethyl)phenyl)-3-(3-(1-methyl-1H-pyrazol-4-yl)quinoxalin-6-yl)urea]",inhibition at 5 µM,ARAF,≤ 0%
same,inhibition at 5 µM,"CDK5; Lys1, NRETHEIVALKR",≤ 0%
same,inhibition at 5 µM,"CDK5; Lys2, DLKPQNLLINR",6.5%
same,inhibition at 5 µM,CLK2,≤ 0%
same,inhibition at 5 µM,"FAK; ATP Loop, YMEDSTYYKASK",22.5%
same,inhibition at 5 µM,"FAK; Lys1, CIGEGQFGDVHQGIYMSPENPALAVAIKTCK",2.8%
same,inhibition at 5 µM,"IRAK4; Lys1, GYVNNTTVAVKK",≤ 0%
same,inhibition at 5 µM,"IRAK4; Lys2, DIKSANILLDEAFTAK",1.2%
same,inhibition at 5 µM,"LYN; ATP Loop, EGAKFPIKWTAPEAINFGCFTIK",≤ 0%
same,inhibition at 5 µM,"LYN; Lys1, VAVKTLKPGTMSVQAFLEEANLMK",1.8%
same,inhibition at 5 µM,"MAP2K4; ATP Loop, LCDFGISGQLVDSIAKTR",6%
same,inhibition at 5 µM,"MAP2K4; Lys2, DIKPSNILLDR",≤ 0%
same,inhibition at 5 µM,MAP2K5,3%
same,inhibition at 5 µM,MAST3,≤ 0%
same,inhibition at 5 µM,NuaK2,2.2%
same,inhibition at 5 µM,"PAK2; Lys1, IGQGASGTVFTATDVALGQEVAIKQINLQK",6.9%
same,inhibition at 5 µM,"PAK2; Other, KNPQAVLDVLKFYDSNTVK",0.8%
same,inhibition at 5 µM,PCTAIRE1,≤ 0%
same,% Inhibition,"PCTAIRE2, PCTAIRE3",NB (NB = No Binding (≤ 0))
same,inhibition at 5 µM,PIK3C3; TEDGGKYPVIFKHGDDLR,4.9%
same,inhibition at 5 µM,PIK3C3; TEDGGKYPVIFKHGDDLRQDQLILQIISLMDK,≤ 0%
same,inhibition at 5 µM,"PKN1; Lys1, VLLSEFRPSGELFAIKALK",≤ 0%
same,inhibition at 5 µM,"PKN1; Lys2, DLKLDNLLLDTEGYVK",14.3%
same,inhibition at 5 µM,RAF1,≤ 0%
same,inhibition at 5 µM,RIPK2,≤ 0%
same,inhibition at 5 µM,SBK,≤ 0%
same,inhibition at 5 µM,"SNRK; Lys1, VAVKVIDK",≤ 0%
same,inhibition at 5 µM,"SNRK; Lys2, DLKPENVVFFEK",0.4%
same,inhibition at 5 µM,TLK1,6.2%
same,inhibition at 5 µM,TYK2 domain2,≤ 0%
same,inhibition at 5 µM,Wee1,2.2%
same,inhibition at 5 µM,ZAK,≤ 0%
same,inhibition at 5 µM,ZC2/TNIK,11.2%
same,% Inhibition,"p38d, p38g",NB (NB = No Binding (≤ 0))

# Reference: paper PMC12073402, “A Selective MAP3K1 Inhibitor Facilitates Discovery of NPM1 as a Member of the Network” (Molecules, 2025)
